Measured values taken from paper PMC12524732 (2025).

Assays:
[1] = tested on: c-KIT2 (DNA, G4) CGGGCGGGCGCTAGGGAGGGT; experiment: ITC; details: 20 mM KCl; 10 mM KH2PO4, pH 7.0, 25 °C; ~20 µM DNA; up to 8 equivalents; Kb and n not determinable
[2] = tested on: mutTel24 (DNA, G4) TTGGGTTAGGGTTAGGGTTAGGGA; experiment: 1H-NMR titration; details: 20 mM KCl; 10 mM KH2PO4, pH 7.0, 25 °C; 0.2 mM DNA; up to 4 equivalents; no shifts
[3] = tested on: c-MYC (DNA, G4) TGAGGGTGGGTAGGGTGGGTAA; experiment: ITC; details: 20 mM KCl; 10 mM KH2PO4, pH 7.0, 25 °C; ~20 µM DNA; up to 8 equivalents; Kb and n not determinable
[4] = tested on: dsDNA duplex (DNA, duplex) GTAACTAGTTAACGATC/GATCGTTAACTAGTTAC; experiment: 1H-NMR titration; details: 20 mM KCl; 10 mM KH2PO4, pH 7.0, 25 °C; 0.2 mM DNA; up to 4 equivalents; no shifts
[5] = tested on: c-KIT2 (DNA, G4) CGGGCGGGCGCTAGGGAGGGT; experiment: 1H-NMR titration; details: 20 mM KCl; 10 mM KH2PO4, pH 7.0, 25 °C; 0.2 mM DNA; up to 8 equivalents; shifts up to ~50 Hz, 5′ G-quartet
[6] = tested on: c-MYC (DNA, G4) TGAGGGTGGGTAGGGTGGGTAA; experiment: 1H-NMR titration; details: 20 mM KCl; 10 mM KH2PO4, pH 7.0, 25 °C; 0.2 mM DNA; up to 8 equivalents; shifts up to ~70 Hz, mainly 3′ G-quartet

- ΔH° [1]: −52.8 ± 5.8 kJmol^−1
- binding [2]: no
- ΔH° [3]: −11.7 ± 2.0 kJmol^−1
- binding [4]: no
- binding [5]: weak
- binding [6]: weak
Compound: CC[C@]1(O)C[C@H]2CN(CCc3c([nH]c4ccccc34)[C@@](C(=O)OC)(c3cc4c(cc3OC)N(C=O)[C@H]3[C@@](O)(C(=O)OC)[C@H](OC(C)=O)[C@]5(CC)C=CCN6CC[C@]43[C@@H]65)C2)C1
